# Assay results reported in US4080460A, “Biguanides and therapeutic compositions and uses of the same” (Aron Sarl, priority 1975, dated 1978).
# Structures can show the parent of a compound that is named as a salt. Where two headings read alike, the source gives them in different places.
# Tests used:
# Grollman rats = experiment: action on the control of blood pressure in Grollman rats; format: in vivo, rat; conditions: oral, 2 × 3 mg/kg
# Procedure: (§1) The above results are confirmed by the results of an investigation of the action on the control of blood pressure. On oral administration of a dosage of 2 × 3 mg/kg of compound to Doca rats (Technique according to Green and co-workers, Am. J. Physiol, 1952, 170, p.94) and to Grollman rats (Techniques according to Grollman, Proc. Soc. Exp. Biol. Med., 1944, 57, p.102), the precent decrease of the systolic blood pressure with respect to its original value is noted.
# [1] = acute toxicity investigation in mice; conditions: mouse, in vivo
# Doca rats = experiment: action on the control of blood pressure in Doca rats; format: in vivo, rat; conditions: oral, 2 × 3 mg/kg
# Procedure: as §1
# [2] = system: uptake of ^3 H noradrenalin by the synaptosomes of a rat hypothalamus homogenate; experiment: inhibition of the uptake of ^3 H noradrenalin by the synaptosomes of a rat hypothalamus homogenate; format: biochemical; conditions: with respect to the control test
# Description: The compounds of the formula (I) are capable of modifying the accumulation of noradrenalin and particularly to inhibit the uptake of ^3 H noradrenalin by the synaptosomes of a rat hypothalamus homogenate prepared according to Banerjee, Snyder and Mechoulam (J. Pharmacol. Exp. Ther., 194, 1, 74, 1975). This inhibition of the uptake of ^3 H noradrenaline is a known property of various compounds having an activity on the central nervous system and/or on the sympathetic nervous system, particularly a hypotensive effect (J. Glowinski and J. Axelrod, Effects of Drugs on the Disposition of ^3 H norepinephrine in the Rat Brain, Pharmacological Reviews, Vol. 18, n°1, Part I, 1966).
# They are expressed as percent inhibition of the uptake with respect to the control test.
# [3] = iv, read-out: LD50 (mg/kg) i.v.
# [4] = po, read-out: LD50 (mg/kg) p.o.
# [5] = 5 × 10^-4 M ultimate concentration
# [6] = 5 × 10^-5 M ultimate concentration
# [7] = 5 × 10^-6 M ultimate concentration
SMILES,percent decrease of the systolic blood pressure with respect to its original value (Grollman rats) [%],"LD50 [1, 3] [mg/kg]","LD50 [1, 4] [mg/kg]",percent decrease of the systolic blood pressure with respect to its original value (Doca rats) [%],"inhibition % of the uptake of ^3 H noradrenalin [2, 5] [%]","inhibition % of the uptake of ^3 H noradrenalin [2, 6] [%]","inhibition % of the uptake of ^3 H noradrenalin [2, 7] [%]"
"Cc1cc(NC(=N)NC(=N)N)no1 [Example 1, (5-methyl-isoxazol-3-yl)biguanide hydrochloride]",20,115,700,25,–,–,–
"CNC(=N)NC(=N)Nc1cc(C)on1 [Example 2, 1-methyl-5-(5-methyl-isoxazol-3-yl)biguanide]",–,–,900,–,53.6,–,–
Cc1cc(NC(=N)NC(=N)N(C)C)no1 [Example 3],10,140,800,–,47.9,–,–
CCc1cc(NC(=N)NC(=N)N)no1 [Example 4],–,45,500,–,52.7,–,–
CCCCc1cc(NC(=N)NC(=N)N)no1 [Example 5],–,–,600,10,69.5,–,–
CC(C)c1cc(NC(=N)NC(=N)N)no1 [Example 6],–,–,200,–,–,54.6,–
Cc1cc(N(C)C(=N)NC(=N)N)no1 [Example 7],–,–,–,15,48.1,–,–
Cc1conc1NC(=N)NC(=N)N [Example 8],15,70,300,15,–,55,36
N=C(N)NC(=N)Nc1ccon1 [Example 9],–,> 150,> 1000,–,68.6,–,–
Cc1onc(N(C)C(=N)NC(=N)N)c1C [Example 10],–,100,> 500,–,19.5,–,–
Cc1conc1NC(=N)NC(=N)N(C)C [Example 11],–,40,300,15,60.1,–,–
CCCCNC(=N)NC(=N)Nc1cc(C)on1 [Example 13],–,35,250,–,63.1,–,–
CCc1conc1NC(=N)NC(=N)N [Example 14],–,–,500,–,–,61.8,46.5
CCN(C(=N)NC(=N)N)c1cc(C)on1 [Example 16],–,–,> 750,–,37.9,–,–
Cc1cc(NC(=N)NC(=N)N2CCN(C)CC2)no1 [Example 19],20,100,2000,–,53.8,–,–
Cc1cc(NC(=N)NC(=N)N2CCOCC2)no1 [Example 20],–,100,750,–,46.6,–,–
Cc1noc(NC(=N)NC(=N)N(C)C)c1C [Example 22],–,–,700,–,38.1,–,–
